4 compounds from patent publication US11180452B2, “Methods and compositions for selectively inhibiting pathogenic microbes” (priority 2019, dated 2021) can be followed below.

The structures appear in SMILES notation. ≈ marks a conversion by molar mass, not a printed value. Where “and” joins values, the source holds several entries; their conditions need not be identical. Identical values can stand only once. Like-named read-outs stand apart in the source and are kept apart here.

The subject of data set [1] is Francisella tularensis subsp. Holarctica Strain LVSR NR-597. The data set is described as follows: microbe, parasite or virus in culture. The class given is cell-based.
The next data set deals with Bacillus thuringiensis. Format: cell-based. As to conditions: Bacillus thuringiensis Berliner ATCC: 10792; for MIC: Bacillus thuringiensis, read-out: MIC.
For data set [2], the system named is Francisella tularensis strains. The experiment in a line: microbe, parasite or virus in culture. Format: cell-based.
Another data set deals with N. gonorrhoeae. The experiment in a line: N. gonorrhoeae MIC. The settings on record: Neisseria gonorrhoeae. The class given is cell-based.
The test system of a further data set is Candida glabrata. The data set is described as follows: Candida glabrata MIC / MFC. As to conditions: Nakaseomyces glabratus, Candida glabrata #584 (Table 2); read-out: MIC. Format: cell-based.
For the next data set, the system named is Bacillus subtilis. The data set is described as follows: Bacillus subtilis MIC / MBC. The class given is cell-based. As to conditions: for MBC: Bacillus subtilis NRRL: B-571, minimum bactericidal concentration; for MIC: Bacillus subtilis, Bacillus subtilis (Ehrenberg 1835) Cohn 1872 NRRL: B-571, read-out: MIC.
A further data set concerns NoSpin HepaRG cells. The data set is described as follows: HepaRG cytotoxicity, MTT assay EC50. Format: cell-based, human. The settings on record: Homo sapiens, HepaRG; cytotoxicity EC50, Table 9. As for the experimental part:
Additionally, the antimicrobial compounds were analyzed for cytotoxicity. […] We utilized the standard MTT assay (Promega CellTiter 96) and GraphPad Prism 7 software to determine EC50 values for each analogue. Briefly, 20,000 HepG2 cells in 200 μl of the ATCC recommended media were seeded in each well of a 96-well plate with a moisture barrier created in the outermost wells. The cells were allowed to attach overnight at 37° C., and then observed under phase contrast microscopy for proper morphological characteristics. […] Once incubations were complete, the spectrophotometric absorbance of the samples was measured at a wavelength of 595 nm. […] For the HepaRG assay, NoSpin HepaRG™ cells (Lonza, cat #NSHPRG) were thawed and plated with 20,000 cells per well. They were allowed to attach for 4 h (optimal DME profile per Lonza's testing) before dosing following the identical protocol as above.

A short description of data set [3]: Toxicity in mice, body weight over 7 days. As to conditions: for Animal body weight (kg) Day 0 / Animal body weight (kg) Day 1 / Animal body weight (kg) Day 2 / Animal body weight (kg) Day 3 / Animal body weight (kg) Day 4 / Animal body weight (kg) Day 5 / Animal body weight (kg) Day 6 / Animal body weight (kg) Day 7: mice, IP; for Animal body weight (kg) Day 0: Day 0, individual animals; for Animal body weight (kg) Day 1: Day 1, individual animals; for Animal body weight (kg) Day 2: Day 2, individual animals; for Animal body weight (kg) Day 3: Day 3, individual animals; for Animal body weight (kg) Day 4: Day 4, individual animals; for Animal body weight (kg) Day 5: Day 5, individual animals; for Animal body weight (kg) Day 6: Day 6, individual animals; for Animal body weight (kg) Day 7: Day 7, individual animals. Format: in vivo, Balb/c mice. From the text:
The vehicle is 40% PEG300 solution in 0.9% NaCl. […] Thus, the compounds are useful for in vivo antimicrobial administration.

For data set [4], the system named is Burkholderia thailandensis Brett et al ATCC: 700388. The experiment in a line: microbe, parasite or virus in culture. Format: cell-based.
Setting [5] is: read-out: F. tularensis BSL-3 MIC, Strain 100.
The mark [6] stands for this setting: read-out: F. tularensis BSL-3 MIC, strain HN-63.
The mark [7] stands for this setting: read-out: F. tularensis BSL-3 MIC, strain LVS.
[8] abbreviates: read-out: F. tularensis BSL-3 MIC, strain MA00-2987.
Where [9] appears, read: read-out: F. tularensis BSL-3 MIC, strain MO #1.
[10] abbreviates: read-out: F. tularensis BSL-3 MIC, strain MO #2.
[11] abbreviates: read-out: F. tularensis BSL-3 MIC, strain MO #3.
Setting [12] is: read-out: F. tularensis BSL-3 MIC, strain OR-96.
Where [13] appears, read: read-out: F. tularensis BSL-3 MIC, strain SCHU S4.
The mark [14] stands for this setting: read-out: F. tularensis BSL-3 MIC, strain WY-96.
[15] abbreviates: read-out: MAX, highest MIC over the Francisella tularensis strains.
Where [16] appears, read: read-out: MIN, lowest MIC over the Francisella tularensis strains.

As for `FC(F)(F)c1ccccc1Sc1c[nH]c2ccc(Br)cc12` [Compound 174AV, 5-bromo-3-((2-(trifluoromethyl)phenyl)thio)-1H-indole], the MIC in data set [1] was found to be 1 µg/mL (≈ 2.69 µM); in the data set on Bacillus thuringiensis, 1 µg/mL (≈ 2.69 µM); in data set [2] (setting [5]), 6 µg/mL (≈ 16.1 µM); in data set [2] (setting [6]), 4 µg/mL (≈ 10.7 µM); in data set [2] (setting [7]), 4 µg/mL (≈ 10.7 µM); in data set [2] (setting [8]), 3.67 µg/mL (≈ 9.86 µM). Moreover, the MIC turned out to be 3 µg/mL (≈ 8.06 µM) in data set [2] (setting [9]); 2 µg/mL (≈ 5.37 µM) in [2] (setting [10]); 4 µg/mL (≈ 10.7 µM) in data set [2] (setting [11]); 4 µg/mL (≈ 10.7 µM) in [2] (setting [12]); 4 µg/mL (≈ 10.7 µM) in data set [2] (setting [13]); 4 µg/mL (≈ 10.7 µM) in data set [2] (setting [14]). Further, the MIC in data set [2] (setting [15]) was determined as 6 µg/mL (≈ 16.1 µM); in data set [2] (setting [16]), 2 µg/mL (≈ 5.37 µM); in the data set with N. gonorrhoeae (strain #167), 3.12 µg/mL (≈ 8.4 µM); in the data set with Candida glabrata it was 25 µg/mL (≈ 67.2 µM); in the data set on Bacillus subtilis, 1 µg/mL (≈ 2.69 µM). Besides, the MBC in the data set on Bacillus thuringiensis is 1 µg/mL (≈ 2.69 µM); against Bacillus subtilis, 2 µg/mL (≈ 5.37 µM). The MIC50 in data set [2] came out at 4 µg/mL (≈ 10.7 µM).
A word on the EC50: it is the concentration giving half of the maximal effect. Take `Cc1[nH]c2ccc(Br)cc2c1Sc1ccccc1Br` [Compound 174AZ, 5-bromo-3-((2-bromophenyl)thio)-2-methyl-1H-indole]: the MIC in data set [1] stood at 1 µg/mL (≈ 2.52 µM); in the data set on Bacillus thuringiensis, 1 µg/mL (≈ 2.52 µM); in data set [2] (setting [5]), 4 µg/mL (≈ 10.1 µM); in data set [2] (setting [6]), 2 µg/mL (≈ 5.04 µM); in data set [2] (setting [7]), 2.67 µg/mL (≈ 6.72 µM); in data set [2] (setting [8]), 2 µg/mL (≈ 5.04 µM). For the same compound, the MIC in [2] (setting [9]) was 1.33 µg/mL (≈ 3.35 µM); in data set [2] (setting [10]), 1 µg/mL (≈ 2.52 µM); in [2] (setting [11]), 2 µg/mL (≈ 5.04 µM); in [2] (setting [12]), 2 µg/mL (≈ 5.04 µM); in data set [2] (setting [13]), 4 µg/mL (≈ 10.1 µM); in data set [2] (setting [14]) it was 2 µg/mL (≈ 5.04 µM). Also, the MIC in data set [2] (setting [15]) is 4 µg/mL (≈ 10.1 µM); in [2] (setting [16]), 1 µg/mL (≈ 2.52 µM); in the data set with N. gonorrhoeae (strain #167), 3.12 µg/mL (≈ 7.87 µM); in the data set on Candida glabrata, over 50 µg/mL; in the data set with Bacillus subtilis, 1 µg/mL (≈ 2.52 µM). The compound also yielded an EC50 in the data set on NoSpin HepaRG cells of 25.8 µg/mL (≈ 65 µM). Further, the MBC against Bacillus thuringiensis was 8 µg/mL (≈ 20.1 µM); against Bacillus subtilis it was 4 µg/mL (≈ 10.1 µM). Moreover, the “toxicity in mice by body weight” value in data set [3] (6-week-old Balb/c mice, body weight over 7 days, vehicle 40% PEG300 in 0.9% NaCl) is listed as “did not have significant toxicity”. The “Animal body weight (kg) Day 0” value is 0.023 kg (2×) and 0.025 kg in [3] (0.1 mg/kg, 0.1 mg/kg); 0.024 kg (2×) and 0.025 kg in data set [3] (1 mg/kg, 1 mg/kg); 0.023 kg (2×) and 0.024 kg in data set [3] (10 mg/kg, 10 mg/kg). Moreover, the “Animal body weight (kg) Day 1” value in data set [3] (0.1 mg/kg, 0.1 mg/kg) is 0.022 kg and 0.024 kg and 0.023 kg; in [3] (1 mg/kg, 1 mg/kg), 0.023 kg and 0.024 kg (2×); in [3] (10 mg/kg, 10 mg/kg), 0.022 kg (2×) and 0.023 kg. Further, the “Animal body weight (kg) Day 2” value in data set [3] (0.1 mg/kg, 0.1 mg/kg) was 0.022 kg and 0.025 kg and 0.023 kg; in data set [3] (1 mg/kg), 0.024 kg; in data set [3] (10 mg/kg, 10 mg/kg), 0.022 kg and 0.023 kg (2×). For the same compound, the “Animal body weight (kg) Day 3” value in data set [3] (0.1 mg/kg, 0.1 mg/kg) was 0.022 kg and 0.025 kg and 0.023 kg; in [3] (1 mg/kg, 1 mg/kg), 0.025 kg and 0.024 kg (2×); in data set [3] (10 mg/kg, 10 mg/kg), 0.022 kg (2×) and 0.023 kg. Moreover, the “Animal body weight (kg) Day 4” value in data set [3] (0.1 mg/kg, 0.1 mg/kg) is 0.023 kg (2×) and 0.025 kg; in data set [3] (1 mg/kg, 1 mg/kg), 0.025 kg (2×) and 0.024 kg; in data set [3] (10 mg/kg), 0.023 kg. Besides, the “Animal body weight (kg) Day 5” value was 0.022 kg and 0.025 kg and 0.023 kg in data set [3] (0.1 mg/kg, 0.1 mg/kg); 0.025 kg and 0.023 kg and 0.024 kg in data set [3] (1 mg/kg, 1 mg/kg); 0.023 kg in [3] (10 mg/kg). The “Animal body weight (kg) Day 6” value in [3] (0.1 mg/kg, 0.1 mg/kg) is 0.022 kg and 0.025 kg and 0.023 kg; in data set [3] (1 mg/kg, 1 mg/kg), 0.025 kg and 0.024 kg (2×); in data set [3] (10 mg/kg, 10 mg/kg), 0.022 kg (2×) and 0.023 kg. The “Animal body weight (kg) Day 7” value in data set [3] (0.1 mg/kg, 0.1 mg/kg) is 0.022 kg (2×) and 0.025 kg; in data set [3] (1 mg/kg, 1 mg/kg), 0.025 kg and 0.023 kg and 0.024 kg; in [3] (10 mg/kg, 10 mg/kg) it was 0.023 kg (2×) and 0.022 kg. Also, in [2], the MIC50 amounted to 2 µg/mL (≈ 5.04 µM).
In the case of `Oc1ccccc1Sc1c[nH]c2ccc(C(F)(F)F)cc12` [Compound 177A, 2-((5-(trifluoromethyl)-1H-indol-3-yl)thio)phenol], the MIC in [1] was 0.78 µg/mL (≈ 2.52 µM); in data set [4], over 50 µg/mL; in the data set on N. gonorrhoeae (strain #203), 3.13 µg/mL (≈ 10.1 µM); against N. gonorrhoeae (strain #205), 3.13 µg/mL (≈ 10.1 µM); in the data set on Candida glabrata, over 50 µg/mL; in the data set with Bacillus subtilis it was 0.39 µg/mL (≈ 1.26 µM). Also, the EC50 in the data set on NoSpin HepaRG cells turned out to be 24.1 µg/mL (≈ 77.9 µM). Moreover, the MBC in [4] is over 50 µg/mL.
Consider `Nc1ccccc1Sc1c[nH]c2ccc(C(F)(F)F)cc12` [Compound 177C, 2-((5-(trifluoromethyl)-1H-indol-3-yl)thio)aniline], for which the MIC in data set [1] is 3.13 µg/mL (≈ 10.2 µM); in data set [4] it was over 50 µg/mL; against N. gonorrhoeae (strain #203), 3.13 µg/mL (≈ 10.2 µM); with N. gonorrhoeae (strain #205), 3.13 µg/mL (≈ 10.2 µM); with Candida glabrata, over 50 µg/mL; with Bacillus subtilis, 0.39 µg/mL (≈ 1.26 µM). In the data set with NoSpin HepaRG cells, this compound gave a concentration for a half-maximal effect (EC50) of 48.2 µg/mL (≈ 156 µM). The MBC in data set [4] is over 50 µg/mL.
